Data on 13 compounds can be found in patent US7538132B2, “Isoxazolo derivatives” (Hoffman-La Roche Inc., priority 2005, dated 2009).

The target in this test is T1, GABA A receptor α5β3γ2 (hα5) (Homo sapiens, UniProt P18507+P31644).
T1 construct: expressed in transfected cells; host or cells: HEK293 (transiently transfected; membranes prepared from cell pellets)
As to the kind of experiment: [3H]flumazenil competition binding assay, human GABA A α5β3γ2 receptors. The following applies: displacement of [3H]flumazenil (0.5 nM) from membranes of HEK293 cells expressing human α5β3γ2; 1 hour at 4° C.; means of two determinations. As for the experimental part:
The affinity of compounds at GABA A receptor subtypes was measured by competition for [3H]flumazenil (85 Ci/mmol; Roche) binding to HEK293 cells expressing rat (stably transfected) or human (transiently transfected) receptors of composition α1β3γ2, α2⊖3γ2, α3β3γ2 and α5β3γ2.
Cell pellets were suspended in Krebs-tris buffer (4.8 mM KCl, 1.2 mM CaCl2, 1.2 mM MgCl2, 120 mM NaCl, 15 mM Tris; pH 7.5; binding assay buffer), homogenized by polytron for ca. 20 sec on ice and centrifuged for 60 min at 4° C. (50000 g; Sorvall, rotor: SM24=20000 rpm). The cell pellets were resuspended in Krebs-tris buffer and homogenized by polytron for ca. 15 sec on ice. Protein was measured (Bradford method, Bio-Rad) and aliquots of 1 mL were prepared and stored at −80° C.
Assays were incubated to equilibrium for 1 hour at 4° C. and harvested onto GF/C uni-filters (Packard) by filtration using a Packard harvester and washing with ice-cold wash buffer (50 mM Tris; pH 7.5). After drying, filter-retained radioactivity was detected by liquid scintillation counting. Ki values were calculated using Excel-Fit (Microsoft) and are the means of two determinations.
On to `Cc1onc(-c2ccc(F)c(F)c2)c1C(=O)c1c[nH]c(C(=O)NC2CCCC2)c1` [Example 255, 4-[3-(3,4-Difluoro-phenyl)-5-methyl-isoxazole-4-carbonyl]-1H-pyrrole-2-carboxylic acid cyclopentylamide], for which the Ki was 0.0064 µM.
On to `Cc1onc(-c2ccc(Cl)cc2)c1C(=O)c1c[nH]c(C(=O)NC2CCCC2)c1` [Example 152, 4-[3-(4-Chloro-phenyl)-5-methyl-isoxazole-4-carbonyl]-1H-pyrrole-2-carboxylic acid cyclopentylamide], for which affinity was put at a Ki of 0.0052 µM.
As for `Cc1onc(-c2ccc(F)cc2)c1C(=O)c1c[nH]c(C(=O)NC2CCOCC2)c1` [Example 146, 4-[3-(4-Fluoro-phenyl)-5-methyl-isoxazole-4-carbonyl]-1H-pyrrole-2-carboxylic acid (tetrahydro-pyran-4-yl)-amide], the Ki amounted to 0.00155 µM.
In turn, `Cc1onc(-c2ccc(F)cc2)c1C(=O)c1c[nH]c(C(=O)NCCO)c1` [Example 140, 4-[3-(4-Fluoro-phenyl)-5-methyl-isoxazole-4-carbonyl]-1H-pyrrole-2-carboxylic acid (2-hydroxy-ethyl)-amide] registered a Ki of 0.0099 µM.
`Cc1onc(-c2ccc(F)cc2)c1C(=O)c1c[nH]c(C(=O)NCCc2cnc[nH]2)c1` [Example 141, 4-[3-(4-Fluoro-phenyl)-5-methyl-isoxazole-4-carbonyl]-1H-pyrrole-2-carboxylic acid [2-(1H-imidazol-4-yl)-ethyl]-amide] registered a Ki of 0.00605 µM.
`Cc1onc(-c2ccc(Cl)cc2)c1C(=O)c1c[nH]c(C(=O)NC2CCOCC2)c1` [Example 162, 4-[3-(4-Chloro-phenyl)-5-methyl-isoxazole-4-carbonyl]-1H-pyrrole-2-carboxylic acid (tetrahydro-pyran-4-yl)-amide] registered a Ki of 0.0014 µM.
Next, `Cc1onc(-c2ccccc2)c1C(=O)c1c[nH]c(C(=O)NCC2CC2)c1` [Example 12, 4-(5-Methyl-3-phenyl-isoxazole-4-carbonyl)-1H-pyrrole-2-carboxylic acid cyclopropylmethyl-amide]: 0.0066 µM; `Cc1onc(-c2ccc(F)cc2)c1C(=O)c1c[nH]c(C(=O)NC2CCC2)c1` [Example 138, 4-[3-(4-Fluoro-phenyl)-5-methyl-isoxazole-4-carbonyl]-1H-pyrrole-2-carboxylic acid cyclobutylamide]: 0.0036 µM; `Cc1onc(-c2ccc(Br)cc2)c1C(=O)c1cc(C(=O)NCCCN2CCOCC2)n(C)c1` [Example 232, 4-[3-(4-Bromo-phenyl)-5-methyl-isoxazole-4-carbonyl]-1-methyl-1H-pyrrole-2-carboxylic acid (3-morpholin-4-yl-propyl)-amide]: 0.0087 µM.
The result for `Cc1onc(-c2ccc(Cl)cc2)c1C(=O)c1c[nH]c(C(=O)NCCO)c1` [Example 153, 4-[3-(4-Chloro-phenyl)-5-methyl-isoxazole-4-carbonyl]-1H-pyrrole-2-carboxylic acid (2-hydroxy-ethyl)-amide] reads 0.00755 µM; that for `CCc1onc(-c2ccccc2)c1C(=O)c1c[nH]c(C(=O)NC2CCOCC2)c1` [Example 210, 4-(5-Ethyl-3-phenyl-isoxazole-4-carbonyl)-1H-pyrrole-2-carboxylic acid (tetrahydro-pyran-4-yl)-amide], 0.00245 µM; that for `Cc1onc(-c2ccccc2)c1C(=O)c1c[nH]c(C(=O)NC2CCOCC2)c1` [Example 26, 4-(5-Methyl-3-phenyl-isoxazole-4-carbonyl)-1H-pyrrole-2-carboxylic acid (tetrahydro-pyran-4-yl)-amide], 0.00285 µM.
Consider `Cc1onc(-c2ccc(Br)cc2)c1C(=O)c1cc(C(=O)NC2CCOCC2)n(C)c1` [Example 231, 4-[3-(4-Bromo-phenyl)-5-methyl-isoxazole-4-carbonyl]-1-methyl-1H-pyrrole-2-carboxylic acid (tetrahydro-pyran-4-yl)-amide], for which affinity was put at a Ki of 0.008 µM.

The Ki is a measure of affinity in units of concentration, obtained from inhibition or displacement. Low readings indicate tighter binding, high ones weaker binding.
